Test results published in patent US20140336253A1, “COMPOSITION FOR TRANSDERMAL ADMINISTRATION OF RIVASTIGMINE” (priority 2011, published 2014).

Assay: Transdermal delivery and tolerability of Rivastigmine patches
Type: in vivo

With `CCN(C)C(=O)Oc1cccc([C@H](C)N(C)C)c1` [Rivastigmine, (S)-{3-[α-(Dimethylamino)ethyl]phenyl}-N-ethyl-N-methylcarbamate] the tolerability (dose of 36 mg free base in up to 80 cm^2 of patches) was “well tolerated” and the amount absorbed (patches containing 36 mg Rivastigmine, up to 80 cm^2) was 12 mg.
